In patent publication US8962650B2, “Therapeutic agent for tumor” (Eisai R&D Management Co., Ltd., priority 2011, dated 2015):

Tested on: human melanoma cell line (A375)
Test: Tumor proliferation inhibitory effect in nude mice transplanted with human melanoma cell line A375 (relative tumor volume)
Format: in vivo, mouse
Settings: oral once daily 10 mL/kg (Compound A 1 mg/mL, PLX4032 10 mg/mL), A375 subcutaneous
Method: The present invention is described in more detail by way of Examples below. Example 1 Tumor Proliferation Inhibitory Effect of the Combined Use of Compound A and PLX4032 on a Human Melanoma Cell Line (A375)
Using five nude mice in one group (CAnN.Cg-Foxn1nu/CrlCrlj, female, Charles River Laboratories Japan, Inc.), the antitumor effect of administration of Compound A, PLX4032, or both of these compounds was evaluated. The human-derived melanoma cell line A375 (ATCC) was suspended in PBS (Wako Pure Chemical Industries, Ltd) at a density of 5×10^6 cells/ml, followed by thorough mixing. The resulting mixture was subcutaneously transplanted at the right flank of the body of each mouse in an amount of 0.1 mL. Fourteen days after transplantation, the major axis and the minor axis of a tumor were measured by a digital caliper (Digimatic™ caliper, Mitsutoyo Corporation). The mice were grouped so that the average value of tumor volume was nearly equal among the groups. Also, the tumor volume was calculated according to the equations below. Tumor volume (mm^3)=major axis (mm)×minor axis (mm)×minor axis (mm)/2
Compound A was dissolved in purified water at a concentration of 1 mg/mL. Also, PLX4032 was dissolved in DMSO at a concentration of 200 mg/ml. Further, the resulting solution was diluted 20-fold with a 1% aqueous solution of methylcellulose to prepare a 10 mg/mL PLX4032 suspension.
A control group, a Compound A group, a PLX4032 group, and a Compound A and PLX4032-combination group (hereinbelow, expressed as a combination group) were set up. The aqueous solution of Compound A or the PLX4032 suspension was orally administered to the mice in the Compound A group or the PLX4032 group, respectively, once daily at 10 mL/kg. To the combination group mice, the above drug solutions were each orally administered once daily at 10 mL/kg. The administration period was 23 days. Also, administration was not given to the control group mice.
The tumor volume was measured on the initial day of administration and on the 2nd, 5th, 7th, 9th, 12th, 14th, 16th, 19th, 21st, and 23rd days after initiation of administration. The ratio of the tumor volume on each day of measurement relative to the tumor volume on the initial day of administration was calculated as a relative tumor volume (hereinbelow, expressed as RTV). Further, the average value of RTV of mice in each group was calculated. The changes in the average value of RTV with time were shown in Table 1 and FIG. 1 and the value of each group on Day 23 was shown in FIG. 2.

[1] = Day 2 after initiation of administration
[2] = Day 5 after initiation of administration
[3] = Day 7 after initiation of administration
[4] = Day 9 after initiation of administration
[5] = Day 12 after initiation of administration
[6] = Day 14 after initiation of administration
[7] = Day 16 after initiation of administration
[8] = Day 19 after initiation of administration
[9] = Day 21 after initiation of administration
[10] = Day 23 after initiation of administration

Compound | average relative tumor volume (RTV) [1] | average relative tumor volume (RTV) [2] | average relative tumor volume (RTV) [3] | average relative tumor volume (RTV) [4] | average relative tumor volume (RTV) [5] | average relative tumor volume (RTV) [6] | average relative tumor volume (RTV) [7] | average relative tumor volume (RTV) [8] | average relative tumor volume (RTV) [9] | average relative tumor volume (RTV) [10]
COc1cc2nccc(Oc3ccc(NC(=O)NC4CC4)c(Cl)c3)c2cc1C(N)=O [Compound A, 4-[3-chloro-4-(cyclopropylaminocarbonyl)aminophenoxy]-7-methoxy-6-quinolinecarboxamide] | 1.77 | 2.62 | 3.40 | 3.85 | 5.12 | 5.40 | 6.30 | 7.89 | 9.16 | 10.17
CCCS(=O)(=O)Nc1ccc(F)c(C(=O)c2c[nH]c3ncc(-c4ccc(Cl)cc4)cc23)c1F [PLX4032, N-(3-{[5-(4-chlorophenyl)-1H-pyrrolo[2,3-b]pyridin-3-yl]carbonyl}-2,4-difluorophenyl)propane-1-sulfonamide] | 0.98 | 0.94 | 1.00 | 1.13 | 1.46 | 1.38 | 1.52 | 1.63 | 1.80 | 1.93
